From PubChem BioAssay AID1918998 (Molecular Pharmacology Branch, DTP, NCI, 2023)
Several values for one entry are separate records, joined by “and”; a condition that tells them apart may be missing. Identical values can stand only once.

Test system: 521955-158-R2-J5-PDC complex spheroid growth
Test: Anticancer human tumor 521955-158-R2-J5-PDC patient-derived pancreatic carcinoma cell line growth inhibition [AhR]
Conditions: for viability, T/C: stronger effect = lower value
Method in brief: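 Complex tumor spheroids co-cultured with HUVEC and human MSC stroma; AhR antagonists tested in combination with standard-of-care and investigational agents. Top concentration at or near clinical Cmax (else 10 microM), half-log dilutions; growth expressed as percent test/control.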

[1] = curve of first compound, second compound 0.1 µM
[2] = curve of first compound, second compound 0.316 µM
[3] = curve of first compound, second compound 1 µM
[4] = curve of first compound, second compound 3.16 µM
[5] = curve of first compound, second compound 10 µM
[6] = second compound 0.1 µM, first compound 0.0316 µM
[7] = second compound 0.1 µM, first compound 0.1 µM
[8] = second compound 0.1 µM, first compound 0.316 µM
[9] = second compound 0.1 µM, first compound 1 µM
[10] = second compound 0.1 µM, first compound 3.16 µM
[11] = second compound 0.1 µM, first compound 10 µM
[12] = second compound 0.316 µM, first compound 0.0316 µM
[13] = second compound 0.316 µM, first compound 0.1 µM
[14] = second compound 0.316 µM, first compound 0.316 µM
[15] = second compound 0.316 µM, first compound 1 µM
[16] = second compound 0.316 µM, first compound 3.16 µM
[17] = second compound 0.316 µM, first compound 10 µM
[18] = second compound 1 µM, first compound 0.0316 µM
[19] = second compound 1 µM, first compound 0.1 µM
[20] = second compound 1 µM, first compound 0.316 µM
[21] = second compound 1 µM, first compound 1 µM
[22] = second compound 1 µM, first compound 3.16 µM
[23] = second compound 1 µM, first compound 10 µM
[24] = second compound 3.16 µM, first compound 0.0316 µM
[25] = second compound 3.16 µM, first compound 0.1 µM
[26] = second compound 3.16 µM, first compound 0.316 µM
[27] = second compound 3.16 µM, first compound 1 µM
[28] = second compound 3.16 µM, first compound 3.16 µM
[29] = second compound 3.16 µM, first compound 10 µM
[30] = second compound 10 µM, first compound 0.0316 µM
[31] = second compound 10 µM, first compound 0.1 µM
[32] = second compound 10 µM, first compound 0.316 µM
[33] = second compound 10 µM, first compound 1 µM
[34] = second compound 10 µM, first compound 3.16 µM
[35] = second compound 10 µM, first compound 10 µM
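Wherever viability, T/C is given: spheroids mix tumor cells with HUVEC endothelium and human MSC stroma; luminescence taken as viability surrogate after a week of drug exposure.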

O=C(C=Cn1cnc(-c2cc(C(F)(F)F)cc(C(F)(F)F)c2)n1)NNc1cnccn1 + Cc1cncc(-c2nc(NCCc3c[nH]c4ccccc34)c3ncn(C(C)C)c3n2)c1
IC50 [1]: 218 nM | IC50 [2]: 200 nM | IC50 [3]: 251 nM | IC50 [4]: 108 nM | IC50 [5]: < 9.49 nM | viability, T/C (second compound 0.1 µM, first compound 0.00949 µM): 65.6% | viability, T/C (second compound 0.1 µM, first compound 0.03 µM): 59.7% | viability, T/C (second compound 0.1 µM, first compound 0.0949 µM): 53.2% | viability, T/C (second compound 0.1 µM, first compound 0.3 µM): 51.5% | viability, T/C (second compound 0.1 µM, first compound 0.949 µM): 37.1% | viability, T/C (second compound 0.1 µM, first compound 3 µM): 26.3% | viability, T/C (second compound 0.316 µM, first compound 0.00949 µM): 76.1% | viability, T/C (second compound 0.316 µM, first compound 0.03 µM): 58.9% | viability, T/C (second compound 0.316 µM, first compound 0.0949 µM): 57.6% | viability, T/C (second compound 0.316 µM, first compound 0.3 µM): 49.3% | viability, T/C (second compound 0.316 µM, first compound 0.949 µM): 39.6% | viability, T/C (second compound 0.316 µM, first compound 3 µM): 29.1% | viability, T/C (second compound 1 µM, first compound 0.00949 µM): 74.5% | viability, T/C (second compound 1 µM, first compound 0.03 µM): 70% | viability, T/C (second compound 1 µM, first compound 0.0949 µM): 54.5% | viability, T/C (second compound 1 µM, first compound 0.3 µM): 49.4% | viability, T/C (second compound 1 µM, first compound 0.949 µM): 38.9% | viability, T/C (second compound 1 µM, first compound 3 µM): 24.9% | viability, T/C (second compound 3.16 µM, first compound 0.00949 µM): 78.7% | viability, T/C (second compound 3.16 µM, first compound 0.03 µM): 59.1% | viability, T/C (second compound 3.16 µM, first compound 0.0949 µM): 53.2% | viability, T/C (second compound 3.16 µM, first compound 0.3 µM): 36.8% | viability, T/C (second compound 3.16 µM, first compound 0.949 µM): 40.9% | viability, T/C (second compound 3.16 µM, first compound 3 µM): 23.8% | viability, T/C (second compound 10 µM, first compound 0.00949 µM): 38.3% | viability, T/C (second compound 10 µM, first compound 0.03 µM): 35.9% | viability, T/C (second compound 10 µM, first compound 0.0949 µM): 28.2% | viability, T/C (second compound 10 µM, first compound 0.3 µM): 24.7% | viability, T/C (second compound 10 µM, first compound 0.949 µM): 19.7% | viability, T/C (second compound 10 µM, first compound 3 µM): 19.8%

COc1cccc2c1C(=O)c1c(O)c3c(c(O)c1C2=O)CC(O)(C(=O)CO)CC3OC1CC(N)C(O)C(C)O1 (configuration not stated) + Cc1ccccc1N=Nc1ccc(NC(=O)c2ccnn2C)c(C)c1
IC50 [1]: < 31.6 nM | IC50 [2]: 36.9 nM | IC50 [3]: 42.1 nM | IC50 [4]: < 31.6 nM | IC50 [5]: 165 nM | viability, T/C [6]: 40.6% | viability, T/C [7]: 34.4% | viability, T/C [8]: 28.5% | viability, T/C [9]: 6.16% | viability, T/C [10]: 2.14% | viability, T/C [11]: 9.5% | viability, T/C [12]: 53.9% | viability, T/C [13]: 33.6% | viability, T/C [14]: 34% | viability, T/C [15]: 7.86% | viability, T/C [16]: 3.02% | viability, T/C [17]: 11.5% | viability, T/C [18]: 55% | viability, T/C [19]: 34.9% | viability, T/C [20]: 30.1% | viability, T/C [21]: 4.75% | viability, T/C [22]: 2.47% | viability, T/C [23]: 11.2% | viability, T/C [24]: 55.6% | viability, T/C [25]: 39.9% | viability, T/C [26]: 34.3% | viability, T/C [27]: 6.42% | viability, T/C [28]: 4.98% | viability, T/C [29]: 9.42% | viability, T/C [30]: 89.7% | viability, T/C [31]: 63% | viability, T/C [32]: 34.4% | viability, T/C [33]: 3.83% | viability, T/C [34]: 2.39% | viability, T/C [35]: 7.28%

COc1cc(C2c3cc4c(cc3C(OC3OC5COC(C)OC5C(O)C3O)C3COC(=O)C23)OCO4)cc(OC)c1O (configuration not stated) + Cc1ccccc1N=Nc1ccc(NC(=O)c2ccnn2C)c(C)c1
IC50 [1]: 755 nM | IC50 [2]: 668 nM | IC50 [3]: 1010 nM | IC50 [4]: 880 nM | IC50 [5]: 1580 nM | viability, T/C [6]: 99.3% | viability, T/C [7]: 78.2% | viability, T/C [8]: 81.2% | viability, T/C [9]: 39% | viability, T/C [10]: 26% | viability, T/C [11]: 17.6% | viability, T/C [12]: 83.6% | viability, T/C [13]: 108% | viability, T/C [14]: 83.4% | viability, T/C [15]: 31.9% | viability, T/C [16]: 23.9% | viability, T/C [17]: 20% | viability, T/C [18]: 131% | viability, T/C [19]: 97.3% | viability, T/C [20]: 80% | viability, T/C [21]: 49% | viability, T/C [22]: 22.8% | viability, T/C [23]: 18.4% | viability, T/C [24]: 139% | viability, T/C [25]: 118% | viability, T/C [26]: 104% | viability, T/C [27]: 40.6% | viability, T/C [28]: 27.3% | viability, T/C [29]: 17.9% | viability, T/C [30]: 131% | viability, T/C [31]: 140% | viability, T/C [32]: 112% | viability, T/C [33]: 59.9% | viability, T/C [34]: 38.5% | viability, T/C [35]: 22.9%

COc1cc(Nc2ncc3c(n2)-c2ccc(Cl)cc2C(c2c(F)cccc2OC)=NC3)ccc1C(=O)O + Cc1cncc(-c2nc(NCCc3c[nH]c4ccccc34)c3ncn(C(C)C)c3n2)c1
IC50 [1]: > 10000 nM | IC50 [2]: > 10000 nM | IC50 [3]: > 10000 nM | IC50 [4]: > 10000 nM | IC50 [5]: > 10000 nM | viability, T/C [6]: 100% | viability, T/C [7]: 78.8% | viability, T/C [8]: 78.8% | viability, T/C [9]: 72.3% | viability, T/C [10]: 80.1% | viability, T/C [11]: 74.2% | viability, T/C [12]: 99.7% | viability, T/C [13]: 79.9% | viability, T/C [14]: 87.1% | viability, T/C [15]: 73.1% | viability, T/C [16]: 68% | viability, T/C [17]: 60.9% | viability, T/C [18]: 109% | viability, T/C [19]: 88.5% | viability, T/C [20]: 103% | viability, T/C [21]: 83.2% | viability, T/C [22]: 70.7% | viability, T/C [23]: 70.4% | viability, T/C [24]: 127% | viability, T/C [25]: 107% | viability, T/C [26]: 97.5% | viability, T/C [27]: 90.8% | viability, T/C [28]: 83% | viability, T/C [29]: 76.7% | viability, T/C [30]: 125% | viability, T/C [31]: 88.4% | viability, T/C [32]: 76.2% | viability, T/C [33]: 84.3% | viability, T/C [34]: 62.8% | viability, T/C [35]: 81.3%

COc1cc(C2c3cc4c(cc3C(OC3OC5COC(C)OC5C(O)C3O)C3COC(=O)C23)OCO4)cc(OC)c1O (configuration not stated)
viability, T/C (compound 0.0316 µM): 92.5% and 85.2% and 81.7% | viability, T/C (compound 0.1 µM): 98.5% and 79.4% and 77% | viability, T/C (compound 0.316 µM): 76.4% and 80.6% and 66.2% | viability, T/C (compound 1 µM): 56.4% and 36.8% and 39.9% | viability, T/C (compound 3.16 µM): 36.9% and 23.6% and 22.1% | viability, T/C (compound 10 µM): 31% and 20.7% and 19.1% | IC50 (curve of compound): 1380 nM and 706 nM and 636 nM
